# From US20260159546A1, “PHARMACEUTICAL COMPOSITION FOR TREATING SEPSIS INCLUDING DUAL ALARMIN-RECEPTOR-SPECIFIC TARGETING PEPTIDE” (Industry-University Cooperation Foundation Hanyang …, priority 2024, published 2026)
# Where two headings read alike, the source gives them in different places. Ends that are not written are not given here.
# What was measured:
# Type in all cases: cell-based, mouse
# BMDMs [1] = assay: In vitro cell viability study (Quanti-Max) on BMDMs
# Description: Primary bone marrow-derived macrophages (BMDMs) were isolated from female C57BL/6 mice and cultured for five to seven days in a medium supplemented with macrophage-colony stimulating factor (M-CSF) for differentiation. HEK293T cells were acquired from the American Type Culture Collection (ATCC). Both BMDMs and HEK293T cells were cultured in Dulbecco's modified Eagle's medium (DMEM, GenDEPOT Inc., USA) supplemented with 10% fetal bovine serum (FBS), penicillin (100 U/mL), and streptomycin (100 μg/mL).
# BMDMs were plated on 96-well plates (SPL Life Science Co. Ltd., Republic of Korea) at a density of 2×10^4 cells/well and incubated in complete DMEM for 18 h. Thereafter, the cells were treated with various concentrations of H-T, H-R, P-T, P-M peptides, control, TMR, or TMR using Abs Lipo. After 48 h of incubation, the medium was replaced with 100 μl of DMEM and the Quanti-Max solution (10% of each media volume). After two hours of incubation at 37° C. and 5% CO2, the absorbance of the plates including the Quanti-Max solution was measured at 450 nm using the MMR SPARK® microplate reader (TECAN Group Ltd., Switzerland).
# [2] = test system: LPS-induced cytokine production in BMDMs; assay: Cytokine ELISA in supernatant of LPS-treated BMDMs; conditions: LPS 100 ng/mL, 18 h
# Description: FIG. 2. Preparation of TLR4/MD2/RAGE-interacting motifs of HMGB1 or PTX3; • (A and B) Schematic diagram of HMGB1 (A) and PTX3 (B) domains. Glutathione s-transferase (GST)-tagged truncates including the TLR4-, RAGE-, or MD2-binding domains of HMGB1 or PTX3 were constructed. […] HEK293T cells transfected with the GST-tagged constructs in combination with HA-TLR4, Myc-RAGE or His-MD2 were confirmed by GST-pulldown. Western blots of WCLs and eluates after GST-pulldown are shown, using glyceraldehyde 3-phosphate dehydrogenase (GAPDH) as a loading control in WCLs. Based on the pulldown binding results, TLR4-, MD2-, and RAGE-targeted peptides were constructed and prepared as an H-T, H-R, P-T, or P-M peptide (indicated in panels A and B); • (C) BMDMs were incubated with the H-T, H-R, P-T, or P-M peptide at the indicated concentrations for 48 h, and then cell viability was measured by a cell viability assay. […] They were immunoprecipitated with αFlag for two hours, separated by sodium dodecyl sulfate-polyacrylamide gel electrophoresis (SDS-PAGE), and evaluated by immunoblotting; • (E) Competition between rHMGB1 (top) or PTX3 (bottom) and the constructed peptides for their respective receptors. […] TNF-α, IL-6, IL-12p40, and IL-10 levels in the supernatant of the indicated peptide-treated BMDMs, along with LPS (100 ng/mL, 18 h), were determined by ELISA. […]
# BMDMs [3] = assay: Cytokine ELISA in BMDMs stimulated with recombinant alarmins; conditions: BMDMs treated with recombinant alarmin 2, 5 μg/mL
# Description: FIG. 1. Interaction of extracellular high-mobility group protein B1 (HMGB1) and (pentraxin 3) PTX3 with toll-like receptor 4 (TLR4) or receptor for advanced glycation end products (RAGE) in murine macrophages; • (A and B) Release of HMGB1 (A) or PTX3 (B) from murine macrophages after stimulation with lipopolysaccharide (LPS). LPS-induced HMGB1 (A) or PTX3 (B) release from murine macrophages. Immunoblots (IB) for HMGB1 and PTX3 in the cell lysates in LPS-treated bone marrow-derived macrophages (BMDMs) and the supernatant at indicated time points after LPS (100 ng/ml); • (C and D) Interaction between HMGB1 (C) or PTX3 (D) with receptors thereof. HEK293T cells were transfected with constructs, and cell lysates were immunoprecipitated with a Flag-tag-specific antibody and analyzed by immunoblotting (IB) with the indicated antibodies. […] Immunoprecipitants and whole cel lysates (WCL) were analyzed by immunoblotting with the indicated antibodies; • (E) TNF-α, IL-6, IL-12p40, and IL-10 levels in the supernatant of LPS (100 ng/ml, 18 h) or recombinant alarmins (rHMGB1 or rPTX3, each (2, 5 μg/mL))-treated BMDMs determined by enzyme-linked immunosorbent assay (ELISA). The data shown represents at least three independent experiments (n≥3), and bars denote mean±SEM (****p<0.001), and significance was measured by two-way analysis of variance (ANOVA); […]
# [4] = BMDMs, 48 h incubation, various concentrations
molecule,measurement,setting,value
AAYRAKGKPD [H-R],viability of BMDMs,BMDMs [1]; [4],almost no impact
ALAAVLEELR [P-M],viability of BMDMs,BMDMs [1]; [4],almost no impact
FKDPNAPKRP [H-T],viability of BMDMs,BMDMs [1],almost no impact
PAEARLTSAL [P-T],viability of BMDMs,BMDMs [1]; [4],almost no impact
"TMR peptide: fusion peptide of SEQ ID NO: 2 to 5 joined by GG linkers, FKDPNAPKRPGGAAYRAKGKPDGGPAEARLTSALGGALAAVLEELR","production of inflammatory cytokines (TNF-α, IL-6, IL-12p40)",[2],significantly reduced
rPTX3: recombinant alarmin protein pentraxin 3 [reference compound],"levels of TNF-α, IL-6, IL-12p40 and IL-10",BMDMs [3],elevated levels
"rHMGB1: recombinant alarmin protein high-mobility group protein B1 (protein, UniProt P09429 1-215, looked up, Flag tag) High mobility group protein B1: MGKGDPKKPRGKMSSYAFFVQTCREEHKKKHPDASVNFSEFSKKCSERWKTMSAKEKGKFEDMAKADKARYEREMKTYIPPKGETKKKFKDPNAPKRPPSAFFLFCSEYRPKIKGEHPGLSIGDVAKKLGEMWNNTAADDKQPYEKKAAKLKEKYEKDIAAYRAKGKPDAAKKGVVKAEKSKKKKEEEEDEEDEEDEEEEEDEEDEDEEEDDDDE","levels of TNF-α, IL-6, IL-12p40 and IL-10",BMDMs [3],elevated levels
